Assay results: ChEMBL document CHEMBL4673328, “Three bufadienolides induce cell death in the human lung cancer cell line CL1-5 mainly through autophagy” (Bioorg Med Chem Lett, 2021)
Values joined by “and” are separate entries in the source; they are usually repeats but may differ in a detail not shown here. Equal values may be shown once. Active and inactive are the calls of the source. The rule behind the calls is not given here.

What was measured:
[1] = Induction of apoptosis in human CL1-5 cells assessed as early apoptotic cells at 100 nM incubated for 24 hrs by AnnexinV/FITC and propidium iodide staining based flow cytometry analysis (reference value: 2.65%); assay type: functional
[2] = Induction of apoptosis in human CL1-5 cells assessed as viable cells at 100 nM incubated for 24 hrs by AnnexinV/FITC and propidium iodide staining based flow cytometry analysis (reference value: 94.8 %); assay type: functional; conditions: read-out: Activity
[3] = Induction of apoptosis in human CL1-5 cells assessed as necrotic cells at 100 nM incubated for 24 hrs by AnnexinV/FITC and propidium iodide staining based flow cytometry analysis (reference value: 0.285%); assay type: functional
CL1-5 [4] = experiment: Induction of autophagy in human CL1-5 cells assessed as LC3-GFP punta formation at 100 nM incubated for 24 hrs by confocal microscopic analysis; assay type: functional, cell-based
[5] = Induction of autophagy in human CL1-5 cells assessed as fold change in LC3-I expression level at 100 nM incubated for 24 hrs by Western blot analysis relative to control; assay type: functional
[6] = Induction of autophagy in human CL1-5 cells assessed as fold increase in Atg5 expression level at 100 nM incubated for 24 hrs by Western blot analysis relative to control; assay type: functional
[7] = Induction of cell cycle arrest in human CL1-5 cells assessed as G0/G1 phase at 100 nM incubated for 24 hrs by propidium iodide staining based flow cytometry analysis (reference value: 62.2%); assay type: functional
[8] = Induction of autophagy in human CL1-5 cells assessed as fold decrease in p62 expression level at 100 nM incubated for 24 hrs by Western blot analysis relative to control; assay type: functional
[9] = Cytotoxicity against human CL1-5 cells assessed as reduction in cell viability incubated for 24 hrs by MTT assay; assay type: functional, cell-based; conditions: CL1-5, 24 h
[10] = Induction of apoptosis in human CL1-5 cells assessed as late apoptotic cells at 100 nM incubated for 24 hrs by AnnexinV/FITC and propidium iodide staining based flow cytometry analysis (reference value: 2.30%); assay type: functional
[11] = Induction of autophagy in human CL1-5 cells assessed as fold change in p62 expression level at 100 nM incubated for 24 hrs in presence of early-stage autophagy inhibitor, 3-MA by Western blot analysis relative to control; assay type: functional
[12] = Induction of autophagy in human CL1-5 cells assessed as proportion of cells with degradative autophagic compartment at 100 nM incubated for 24 hrs by acridine orange staining based flow cytometry analysis (reference value: 0.34%); assay type: functional
[13] = Induction of cell cycle arrest in human CL1-5 cells assessed as subG1 phase at 100 nM incubated for 24 hrs by propidium iodide staining based flow cytometry analysis (reference value: 2.28%); assay type: functional
[14] = Induction of cell cycle arrest in human CL1-5 cells assessed as S phase at 100 nM incubated for 24 hrs by propidium iodide staining based flow cytometry analysis (reference value: 16.85%); assay type: functional
[15] = Induction of autophagy in human CL1-5 cells assessed as fold increase in mTOR expression level at 100 nM incubated for 24 hrs by Western blot analysis relative to control; assay type: functional
[16] = Induction of autophagy in human CL1-5 cells assessed as fold increase in Beclin 1 expression level at 100 nM incubated for 24 hrs by Western blot analysis relative to control; assay type: functional
[17] = Induction of cell cycle arrest in human CL1-5 cells assessed as G2/M phase at 100 nM incubated for 24 hrs by propidium iodide staining based flow cytometry analysis (reference value: 18.04%); assay type: functional
[18] = Induction of autophagy in human CL1-5 cells assessed as fold decrease in phosphorylated mTOR expression level at 100 nM incubated for 24 hrs by Western blot analysis relative to control; assay type: functional
[19] = Induction of autophagy in human CL1-5 cells assessed as fold increase in LC3-II expression level at 100 nM incubated for 24 hrs by Western blot analysis relative to control; assay type: functional
[20] = Induction of autophagy in human CL1-5 cells assessed as fold increase in Atg7 expression level at 100 nM incubated for 24 hrs by Western blot analysis relative to control; assay type: functional
[21] = Induction of autophagy in human CL1-5 cells assessed as fold change in LC3-I expression level at 50 nM incubated for 24 hrs by Western blot analysis relative to control; assay type: functional
[22] = Induction of autophagy in human CL1-5 cells assessed as fold decrease in p62 expression level at 50 nM incubated for 24 hrs by Western blot analysis relative to control; assay type: functional
[23] = Induction of autophagy in human CL1-5 cells assessed as fold increase in Atg5 expression level at 50 nM incubated for 24 hrs by Western blot analysis relative to control; assay type: functional
[24] = Induction of autophagy in human CL1-5 cells assessed as fold increase in Beclin 1 expression level at 50 nM incubated for 24 hrs by Western blot analysis relative to control; assay type: functional
[25] = Induction of autophagy in human CL1-5 cells assessed as fold increase in mTOR expression level at 50 nM incubated for 24 hrs by Western blot analysis relative to control; assay type: functional
[26] = Induction of autophagy in human CL1-5 cells assessed as fold increase in Atg7 expression level at 50 nM incubated for 24 hrs by Western blot analysis relative to control; assay type: functional
[27] = Induction of autophagy in human CL1-5 cells assessed as fold increase in LC3-II expression level at 50 nM incubated for 24 hrs by Western blot analysis relative to control; assay type: functional
CL1-5 [28] = experiment: Induction of autophagy in human CL1-5 cells assessed as LC3-GFP punta formation at 50 nM incubated for 24 hrs by confocal microscopic analysis; assay type: functional, cell-based
[29] = Induction of autophagy in human CL1-5 cells assessed as fold decrease in phosphorylated mTOR expression level at 50 nM incubated for 24 hrs by Western blot analysis relative to control; assay type: functional

SMILES | Activity [1] | viability at 0.1 µM [2] | Activity [3] | Activity (CL1-5 [4]) | fold change (FC) [5] | fold change (FC) [6] | Activity [7] | fold change (FC) [8] | IC50 [9] | Activity [10] | fold change (FC) [11] | Activity [12] | Activity [13] | Activity [14] | fold change (FC) [15] | fold change (FC) [16] | Activity [17] | fold change (FC) [18] | fold change (FC) [19] | fold change (FC) [20] | other results
CC(=O)O[C@H]1C(=O)[C@@]2(C)[C@H]([C@H](OC(=O)c3ccccc3)[C@]3(O)C[C@H](OC(=O)[C@H](O)[C@@H](NC(=O)c4ccccc4)c4ccccc4)C(C)=C1C3(C)C)[C@]1(OC(C)=O)CO[C@@H]1C[C@@H]2O [PACLITAXEL] | 18.6% | 72% | 2.31% |  |  |  |  |  |  |  |  |  |  |  |  |  |  |  |  |  | 
C[C@H]1C[C@H](O)[C@H](O)[C@H](O[C@H]2CC[C@]3(C=O)[C@H]4[C@H](O)C(=O)[C@]5(C)[C@@H](c6ccc(=O)oc6)CC[C@]5(O)[C@@H]4CC[C@]3(O)C2)O1 | 4.72% | 88.8% | 0.91% | Active | 0.93 | 2.77 | 43.83% | 0.4 | 0.0523 µg/mL and 90.8 nM | 5.52% | 0.56 | 14.45% | 2.14% | 24.94% | 1.1 | 12.86 | 28.04% | 0.08 | 2.55 | 1.76 | 
CO[C@H]1C[C@@H]2CC[C@@H](C)[C@@](O)(O2)C(=O)C(=O)N2CCCC[C@H]2C(=O)O[C@H]([C@H](C)C[C@@H]2CC[C@@H](O)[C@H](OC)C2)CC(=O)[C@H](C)/C=C(\C)[C@@H](O)[C@@H](OC)C(=O)[C@H](C)C[C@H](C)/C=C/C=C/C=C/1C [SIROLIMUS] |  |  |  |  |  |  |  |  |  |  |  |  |  |  |  |  |  |  |  |  | fold change (FC) [21]: 1.69; fold change (FC) [22]: 0.79; fold change (FC) [23]: 2.17; fold change (FC) [24]: 16.57; fold change (FC) [25]: 1.14; fold change (FC) [26]: 1.26; fold change (FC) [27]: 1.3; Activity (CL1-5 [28]): Active; fold change (FC) [29]: 0.26
CC(=O)O[C@H]1C[C@H](C)O[C@@H](O[C@H]2CC[C@]3(C=O)[C@H]4[C@H](O)C(=O)[C@]5(C)[C@@H](c6ccc(=O)oc6)CC[C@]5(O)[C@@H]4CC[C@]3(O)C2)[C@H]1O | 3.53% | 90.9% | 0.658% | Active | 0.69 | 1.51 | 60.1% | 0.42 | 0.0706 µg/mL and 114 nM | 4.93% | 1.19 | 12.29% | 1.81% | 13.21% | 1.28 | 10.47 | 23.65% | 0.31 | 1.84 | 1.18 | 
C[C@@]12O[C@H]3C[C@@H](O1)[C@]1(C=O)[C@H]4[C@H](O)C(=O)[C@]5(C)[C@@H](c6ccc(=O)oc6)CC[C@]5(O)[C@@H]4CC[C@@]1(C3)O2 | 4.19% | 88.6% | 1.3% | inactive | 1.03 | 2.01 | 60.71% | 0.59 | 0.0767 µg/mL and 162 nM | 5.88% | 1.02 | 11.35% | 2.25% | 13.2% | 1.23 | 3.2 | 23.26% | 0.58 | 2.36 | 1.18 | 
